According to patent publication US11254686B1 (Corvus Pharmaceuticals, Inc., priority 2017, dated 2022):

Tests used:
adenosine A2B receptor = adenosine A2B receptor (Homo sapiens (Human), UniProt P29275); assay: Adenosine receptor activity assay (Table 1), A2B activity; format: biochemical; details: for IC50: read-out: Ave A2B cAMP IC50
adenosine A2A receptor = adenosine A2A receptor (Homo sapiens (Human), UniProt P29274); assay: Adenosine receptor activity assay (Table 1), A2A activity; format: biochemical; details: read-out: Ave A2A cAMP IC50
Sequence of adenosine A2A receptor (P29274 whole entry): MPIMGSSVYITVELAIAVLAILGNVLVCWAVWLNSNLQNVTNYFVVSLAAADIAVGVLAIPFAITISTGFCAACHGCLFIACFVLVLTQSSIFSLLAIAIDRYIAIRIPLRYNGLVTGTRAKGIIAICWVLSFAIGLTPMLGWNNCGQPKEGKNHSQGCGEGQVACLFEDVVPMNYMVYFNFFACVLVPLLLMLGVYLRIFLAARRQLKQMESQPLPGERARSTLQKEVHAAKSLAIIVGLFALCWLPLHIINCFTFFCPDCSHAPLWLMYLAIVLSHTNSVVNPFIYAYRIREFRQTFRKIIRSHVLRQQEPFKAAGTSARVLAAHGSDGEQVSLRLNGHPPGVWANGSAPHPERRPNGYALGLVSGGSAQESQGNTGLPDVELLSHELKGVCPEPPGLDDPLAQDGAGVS

[1] = A2A activity to the A2B activity, A2A/A2B
[2] = A2A activity to A2B activity (A2A/A2B)

Sequence of adenosine A2B receptor (P29275 whole entry): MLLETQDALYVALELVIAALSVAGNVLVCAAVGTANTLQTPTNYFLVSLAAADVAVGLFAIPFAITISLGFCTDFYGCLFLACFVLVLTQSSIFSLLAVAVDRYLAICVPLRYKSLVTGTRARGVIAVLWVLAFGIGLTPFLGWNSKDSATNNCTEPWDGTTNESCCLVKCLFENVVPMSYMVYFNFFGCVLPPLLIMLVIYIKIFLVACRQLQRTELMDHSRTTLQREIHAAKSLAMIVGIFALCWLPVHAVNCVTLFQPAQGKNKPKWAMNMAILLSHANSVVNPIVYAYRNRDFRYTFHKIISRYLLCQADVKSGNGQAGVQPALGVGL

Row | Molecule | Ratio (adenosine A2B receptor; [1]) | IC50 (adenosine A2B receptor) [nM] | IC50 (adenosine A2A receptor) [nM] | Ratio (adenosine A2B receptor; [2])
1 | Cc1cc2nc(N[C@@H](C)c3cncc(F)c3)nc(C(=O)NCCC3CN(C(=O)C(F)(F)F)C3)c2s1 [Example Z521, (S)-2-((1-(5-Fluoropyridin-3-yl)ethyl)amino)-6-methyl-N-(2-(1-(2,2,2-trifluoroacetyl)azetidin-3-yl)ethyl)thieno[3,2-d]pyrimidine-4-carboxamide] | 0.06 | > 500 | > 500 | 
2 | C[C@H](Nc1nc(C(=O)N2CCC(C(=O)OC(C)(C)C)C2)c2sccc2n1)c1ccccn1 (stereo partly drawn) [Example Z355, tert-Butyl 1-(2-(((S)-1-(pyridin-2-yl)ethyl)amino)thieno[3,2-d]pyrimidine-4-carbonyl)pyrrolidine-3-carboxylate] |  | 100 to 500 | > 500 | 1.96
3 | C[C@H](Nc1nc(C(=O)N2CCC(C)(C)C2)c2sccc2n1)c1cccnc1 [Example Z3, (S)-(3,3-Dimethylpyrrolidin-1-yl)(2-((1-(pyridin-3-yl)ethyl)amino)thieno[3,2-d]pyrimidin-4-yl)methanone] |  | 100 to 500 | 100 to 500 | 1.26
4 | COC[C@H]1CCN1C(=O)c1nc(N[C@@H](C)c2cncc(F)c2)nc2ccsc12 [Example Z568, (2-(((S)-1-(5-Fluoropyridin-3-yl)ethyl)amino)thieno[3,2-d]pyrimidin-4-yl)((R)-2-(methoxymethyl)azetidin-1-yl)methanone] | 12.84 | 50 to 100 | > 500 | 
5 | CCC(Nc1nc(C(=O)N2CC[C@@H](OC)C2)c2sccc2n1)c1cccnc1 (stereo partly drawn) [Example Z26, ((R)-3-Methoxypyrrolidin-1-yl)(2-((1-(pyridin-3-yl)propyl)amino)thieno[3,2-d]pyrimidin-4-yl)methanone] |  | 10 to 50 | 50 to 100 | 2.58
6 | O=C(c1nc(NCc2cccc(F)c2)nc2ccsc12)N1CCN(CCCc2ccccc2)CC1 [Example Z80, (2-((3-Fluorobenzyl)amino)thieno[3,2-d]pyrimidin-4-yl)(4-(3-phenylpropyl)piperazin-1-yl)methanone] |  | > 500 | > 500 | 1.00
7 | COCC(Nc1nc(C(=O)N2CC[C@H](O)C2)c2sccc2n1)c1cccnc1 (stereo partly drawn) [Example Z124, ((S)-3-Hydroxypyrrolidin-1-yl)(2-((2-methoxy-1-(pyridin-3-yl)ethyl)amino)thieno[3,2-d]pyrimidin-4-yl)methanone] |  | 100 to 500 | > 500 | 2.13
8 | Cc1cc2nc(N[C@@H](C)c3cccnc3)nc(C(=O)NCC[C@@H]3CCNC3)c2s1 [Example Z500, 6-Methyl-2-(((S)-1-(pyridin-3-yl)ethyl)amino)-N-(2-((S)-pyrrolidin-3-yl)ethyl)thieno[3,2-d]pyrimidine-4-carboxamide] | 12.75 | > 500 | > 500 | 
9 | CC(C)(C)OC(=O)N[C@H]1CCN(C(=O)c2nc(NCc3cncc(F)c3)nc3ccsc23)C1 [Example Z245, tert-Butyl (S)-(1-(2-(((5-fluoropyridin-3-yl)methyl)amino)thieno[3,2-d]pyrimidine-4-carbonyl)pyrrolidin-3-yl)carbamate] |  | 50 to 100 | 100 to 500 | 1.87
10 | O=C(c1nc(NCc2cccnc2)nc2ccsc12)N1CC[C@@H](O)C1 [Example Z103, (R)-(3-Hydroxypyrrolidin-1-yl)(2-((pyridin-3-ylmethyl)amino)thieno[3,2-d]pyrimidin-4-yl)methanone] |  | 100 to 500 | > 500 | 3.68
11 | Nc1cc2nc(NCc3cccnc3)nc(C(=O)N3CCCC3)c2s1 [Example Z186, (6-Amino-2-((pyridin-3-ylmethyl)amino)thieno[3,2-d]pyrimidin-4-yl)(pyrrolidin-1-yl)methanone] |  | 50 to 100 | > 500 | 29.35
12 | C[C@H](Nc1nc(C(=O)NCCN)c2sccc2n1)c1cncc(F)c1 [Example Z536, (S)—N-(2-Aminoethyl)-2-((1-(5-fluoropyridin-3-yl)ethyl)amino)thieno[3,2-d]pyrimidine-4-carboxamide] | 10.26 | > 500 | > 500 | 
13 | C[C@H](Nc1nc(C(=O)N2CC[C@@H](O)C2)c2sc(C(F)(F)F)cc2n1)c1ccccn1 [Example Z349, ((R)-3-Hydroxypyrrolidin-1-yl)(2-(((S)-1-(pyridin-2-yl)ethyl)amino)-6-(trifluoromethyl)thieno[3,2-d]pyrimidin-4-yl)methanone] |  | 10 to 50 | > 500 | 46.63
14 | COCC1CN(C(=O)c2nc(N[C@@H](C)c3ccccn3)nc3cc(C)sc23)C1 [Example Z514, (S)-(3-(Methoxymethyl)azetidin-1-yl)(6-methyl-2-((1-(pyridin-2-yl)ethyl)amino)thieno[3,2-d]pyrimidin-4-yl)methanone] | 5.47 | < 10 | 10 to 50 | 
15 | COCC(Nc1nc(C(=O)N2CCCC2)c2sccc2n1)c1cccnc1 (stereo not shown) [Example Z127, (2-((2-Methoxy-1-(pyridin-3-yl)ethyl)amino)thieno[3,2-d]pyrimidin-4-yl)(pyrrolidin-1-yl)methanone] |  | 10 to 50 | 100 to 500 | 
16 | C[C@H](Nc1nc(C(=O)NCCC2CCCC2)c2sccc2n1)c1ccccn1 [Example Z424, (S)—N-(2-Cyclopentylethyl)-2-((1-(pyridin-2-yl)ethyl)amino)thieno[3,2-d]pyrimidine-4-carboxamide] | 1.46 | 50 to 100 | 50 to 100 | 
17 | O=C(c1nc(NCc2cccc(F)n2)nc2ccsc12)N1CCCC1 [Example Z71, (2-(((6-Fluoropyridin-2-yl)methyl)amino)thieno[3,2-d]pyrimidin-4-yl)(pyrrolidin-1-yl)methanone] |  | 50 to 100 | > 500 | 12.97
18 | CCNC1CN(C(=O)c2nc(N[C@@H](C)c3cncc(F)c3)nc3cc(C)sc23)C1 [Example Z574, (S)-(3-(Ethylamino)azetidin-1-yl)(2-((1-(5-fluoropyridin-3-yl)ethyl)amino)-6-methylthieno[3,2-d]pyrimidin-4-yl)methanone] | 58.55 | 10 to 50 | > 500 | 
19 | C[C@H](Nc1nc(C(=O)N2CC[C@H](N)C2)c2sccc2n1)c1ccccn1 [Example Z363, ((S)-3-Aminopyrrolidin-1-yl)(2-(((S)-1-(pyridin-2-yl)ethyl)amino)thieno[3,2-d]pyrimidin-4-yl)methanone] |  | 100 to 500 | > 500 | 23.53
20 | Cc1cc2nc(N[C@@H](C)c3cccnc3)nc(C(=O)N3CC(CNC(=O)C(C)(C)C)C3)c2s1 [Example Z505, (S)—N-((1-(6-Methyl-2-((1-(pyridin-3-yl)ethyl)amino)thieno[3,2-d]pyrimidine-4-carbonyl)azetidin-3-yl)methyl)pivalamide] |  | 100 to 500 | 100 to 500 | 
21 | C[C@H](Nc1nc(C(=O)N2CCC[C@H]2C)c2sccc2n1)c1cccnc1 [Example Z37, ((R)-2-Methylpyrrolidin-1-yl)(2-(((S)-1-(pyridin-3-yl)ethyl)amino)thieno[3,2-d]pyrimidin-4-yl)methanone] |  | 100 to 500 | > 500 | 64.10
22 | C[C@H](Nc1nc(C(=O)N2CC[C@H](N)C2)c2sccc2n1)c1cccnc1 [Example Z367, ((S)-3-Aminopyrrolidin-1-yl)(2-(((S)-1-(pyridin-3-yl)ethyl)amino)thieno[3,2-d]pyrimidin-4-yl)methanone] |  | > 500 | > 500 | 5.78
23 | Azetidin-1-yl(2-(((6-methoxypyridin-3-yl)methyl)amino)thieno[3,2-d]pyrimidin-4-yl)methanone [Example Z433] | 0.22 | > 500 | 100 to 500 | 
24 | C[C@H](Nc1nc(C(=O)N2CCCCC2)c2sccc2n1)c1cccnc1 [Example Z31, (S)-Piperidin-1-yl(2-((1-(pyridin-3-yl)ethyl)amino)thieno[3,2-d]pyrimidin-4-yl)methanone] |  | 100 to 500 | > 500 | 40.00
25 | C[C@H](Nc1nc(C(=O)NCCc2ccc(S(N)(=O)=O)cc2)c2sccc2n1)c1cncc(F)c1 [Example Z454, (S)-2-((1-(5-Fluoropyridin-3-yl)ethyl)amino)-N-(4-sulfamoylphenethyl)thieno[3,2-d]pyrimidine-4-carboxamide] | 38.75 | 10 to 50 | > 500 | 
26 | COC(=O)c1ccc(CCNC(=O)c2nc(N[C@@H](C)c3cncc(F)c3)nc3ccsc23)cc1 [Example Z423, Methyl (S)-4-(2-(2-((1-(5-fluoropyridin-3-yl)ethyl)amino)thieno[3,2-d]pyrimidine-4-carboxamido)ethyl)benzoate] | 5.22 | 100 to 500 | > 500 | 
27 | C[C@H](Nc1nc(C(=O)N2CCN(C(=O)OC(C)(C)C)C2)c2sccc2n1)c1cncc(F)c1 [Example Z584, tert-Butyl (S)-3-(2-((1-(5-fluoropyridin-3-yl)ethyl)amino)thieno[3,2-d]pyrimidine-4-carbonyl)imidazolidine-1-carboxylate] | 2.34 | 100 to 500 | > 500 | 
28 | CC1(C)CCN(C(=O)c2nc(NCc3cncnc3)nc3ccsc23)C1 [Example Z7, (3,3-Dimethylpyrrolidin-1-yl)(2-((pyrimidin-5-ylmethyl)amino)thieno[3,2-d]pyrimidin-4-yl)methanone] |  | > 500 | > 500 | 0.57
29 | Cc1csc2c(C(=O)NCCc3cccc(O)c3)nc(N[C@@H](C)c3ccccn3)nc12 [Example Z447, (S)—N-(3-Hydroxyphenethyl)-7-methyl-2-((1-(pyridin-2-yl)ethyl)amino)thieno[3,2-d]pyrimidine-4-carboxamide] | 1.23 | 50 to 100 | 50 to 100 | 
